The values below come from patent publication US7595313B2, “Nitric oxide donating diuretic compounds, compositions and methods of use” (NicOx, S.A., priority 2005, dated 2009).

For one series, the system named is Male Wistar rats. Put plainly: Determination of the diuresis (urine volume over 6 hours after oral dosing). It is filed as in vivo, rat. On the procedure:
Procedures were approved by the Institutional Animal Care and Use Committee of NitroMed, Inc. Male Wistar rats (180-200 g) were purchased from Charles River Laboratories (Kingston, N.Y. or Raleigh, N.C.) and allowed to acclimate in the facility for a period of at least 72 h. Rats were randomly housed 2-3 per cage in a light-controlled room with a 12 hour light/dark cycle and allowed ad libitum access to food and water.
Prior to the experiment, each rat was placed in a metabolic cage and allowed to acclimate for a period of 24-48 hours with food and water ad libitum. During this acclimation period, rats received mash food instead of pellet food to prevent contamination of the urine samples. All rats were fasted for 18 hours prior to experimentation. In addition, water was removed 90 minutes prior to oral dosing with test compound or vehicle.
The test compounds were prepared immediately prior to dosing in 0.5% Methocel (F4M Premium Hydroxypropyl Methylcellulose, lot # PF12012N12; Dow Chemical Company, USA) and homogenized with a glass/Teflon pestle motorized homogenizer. Gently vortexed test compounds were administered intragastrically (p.o.; 30 mg/kg or 3 mg/kg) at a dose volume of 3 ml per rat using an 18 gauge gavage needle. Urine volume (ml) was monitored and urine was collected for subsequent electrolyte analysis over a 6 hours period. […] Data are expressed as mean ±SEM; n=6 or 7.

Where [1] appears, read: p.o. 30 mg/kg in 0.5% Methocel, male Wistar rats, 6 hours, mean ± SEM, n=6 or 7.

Molecule `NS(=O)(=O)c1cc2c(cc1C(F)(F)F)NC(CCCCCO[N+](=O)[O-])NS2(=O)=O` (centres unmarked) [Example 2, 2H-1,2,4-Benzothiadiazine-7-sulfonamide, 3,4-dihydro-3-[5-(nitrooxy)pentyl]-6-(trifluoromethyl)-, 1,1-dioxide] came in with a melting point of 171 to 189 °C. Further, the “Urine collected in 6 hours (mL) (30 mg/kg)” value (from here on “Urine collected in 6 hours”) with Male Wistar rats (setting [1]) was determined as 5.7 ± 0.7 mL.

As to `NS(=O)(=O)c1cc2c(cc1C(F)(F)F)NC(CCCO[N+](=O)[O-])NS2(=O)=O` (centres unmarked) [Example 3d, 2H-1,2,4-Benzothiadiazine-7-sulfonamide, 3,4-dihydro-3-[3-(nitrooxy)propyl]-6-(trifluoromethyl)-, 1,1-dioxide], the melting point was 165 °C (dec.). Also, the “Urine collected in 6 hours” value in the series with Male Wistar rats (setting [1]) is given as 5.3 ± 0.8 mL.

In turn, `NS(=O)(=O)c1cc2c(cc1Cl)N=C(NC(=O)CCCCO[N+](=O)[O-])NS2(=O)=O` [Example 4c, Pentanamide, N-[7-(aminosulfonyl)-6-chloro-1,1-dioxido-2H-1,2,4-benzothiadiazin-3-yl]-5-(nitrooxy)-] displayed a melting point of 222 to 225 °C. Moreover, the “Urine collected in 6 hours” value with Male Wistar rats (setting [1]) worked out at 3.8 ± 0.7 mL.

`NS(=O)(=O)c1cc2c(cc1Cl)NC(CCC(CO[N+](=O)[O-])O[N+](=O)[O-])NS2(=O)=O` (centres unmarked) [Example 6b, 2H-1,2,4-Benzothiadiazine-7-sulfonamide, 3-[3,4-bis(nitrooxy)butyl]-6-chloro-3,4-dihydro-, 1,1-dioxide]: the melting point was in the range of 153 to 155 °C. In the series with Male Wistar rats (rat, in vivo, po), the “Urine collected in 6 hours” value was found to be 6.8 ± 0.5 mL.

As to `NS(=O)(=O)c1cc2c(cc1C(F)(F)F)NC(CCC(CO[N+](=O)[O-])O[N+](=O)[O-])NS2(=O)=O` (centres unmarked) [Example 7, 2H-1,2,4-benzothiadiazine-7-sulfonamide, 3-[3,4-bis(nitrooxy)butyl]-3,4-dihydro-6-(trifluoromethyl)-, 1,1-dioxide], the melting point is 157 to 160 °C (dec.). The “Urine collected in 6 hours” value in the series with Male Wistar rats (rat, in vivo, po) worked out at 5.7 ± 0.4 mL.

`NS(=O)(=O)c1cc2c(cc1Cl)NC(CCCO[N+](=O)[O-])NS2(=O)=O` (centres unmarked) [Example 8, 2H-1,2,4-Benzothiadiazine-7-sulfonamide, 6-chloro-3,4-dihydro-3-[3-(nitrooxy)propyl]-, 1,1-dioxide]: the melting point is 178 to 181 °C. For the same molecule, the “Urine collected in 6 hours” value with Male Wistar rats (setting [1]) was found to be 6.2 ± 0.7 mL.

On to `Cc1c(C2Nc3cc(Cl)c(S(N)(=O)=O)cc3S(=O)(=O)N2)no[n+]1[O-]` (centres unmarked) [Example 9b, 2H-1,2,4-Benzothiadiazine-7-sulfonamide, 6-chloro-3,4-dihydro-3-(4-methyl-5-oxido-1,2,5-oxadiazol-3-yl)-, 1,1-dioxide], for which the melting point was 242 to 243 °C (dec.). The “Urine collected in 6 hours” value in the series on Male Wistar rats (setting [1]) was 6.7 ± 0.8 mL.

Turning to `NS(=O)(=O)c1cc2c(cc1Cl)NC(CCCC(=O)NC[C@H](CO[N+](=O)[O-])O[N+](=O)[O-])=NS2(=O)=O` [Example 11, 4H-1,2,4-Benzothiadiazine-3-butanamide, 7-(aminosulfonyl)-N-[(2R)-2,3-bis(nitrooxy)propyl]-6-chloro-, 1,1-dioxide], the melting point was more than 220 °C. Besides, the “Urine collected in 6 hours” value with Male Wistar rats (rat, in vivo, po) is 3.7 ± 0.3 mL.

Consider `NS(=O)(=O)c1cc2c(cc1C(F)(F)F)NC1(CCN(C(=O)CCCCO[N+](=O)[O-])CC1)NS2(=O)=O` [Example 12c, Spiro[2H-1,2,4-benzothiadiazine-3(4H), 4′-piperidine]-7-sulfonamide, 1′-[5-(nitrooxy)-1-oxopentyl]-6-(trifluoromethyl)-, 1,1-dioxide], for which the melting point is 178 °C (dec.).

On to `NS(=O)(=O)c1cc2c(cc1Cl)NC(CCC(=O)NCCOCCO[N+](=O)[O-])=NS2(=O)=O` [Example 13, 4H-1,2,4-Benzothiadiazine-3-propanamide, 7-(aminosulfonyl)-6-chloro-N-[2-[2-(nitrooxy)ethoxy]ethyl]-, 1,1-dioxide], for which the melting point was in the range of 175 to 178 °C. For the same molecule, the “Urine collected in 6 hours” value in the series on Male Wistar rats (setting [1]) turned out to be 2.2 ± 0.5 mL.

`NS(=O)(=O)c1cc2c(cc1Cl)NC(CCCC(=O)NCCO[N+](=O)[O-])=NS2(=O)=O` [Example 14, 4H-1,2,4-Benzothiadiazine-3-butanamide, 7-(aminosulfonyl)-6-chloro-N-[2-(nitrooxy)ethyl]-, 1,1-dioxide] came in with a melting point of 168 to 170 °C. Moreover, the “Urine collected in 6 hours” value in the series with Male Wistar rats (setting [1]) is 4.0 ± 0.4 mL.

On to `CC(CO[N+](=O)[O-])(CO[N+](=O)[O-])C(=O)N1CCC2(CC1)Nc1cc(C(F)(F)F)c(S(N)(=O)=O)cc1S(=O)(=O)N2` [Example 16c, Spiro[2H-1,2,4-benzothiadiazine-3(4H), 4′-piperidine]-7-sulfonamide, 1′-[2-methyl-3-(nitrooxy)-2-[(nitrooxy)methyl]-1-oxopropyl]-6-(trifluoromethyl)-, 1,1-dioxide], for which the melting point was > 140 °C (dec.). Also, the “Urine collected in 6 hours” value in the series on Male Wistar rats (rat, in vivo, po) was determined as 4.3 ± 0.3 mL.

Consider `NS(=O)(=O)c1cc2c(cc1Cl)NC1(CCN(C(=O)CCCCO[N+](=O)[O-])CC1)NS2(=O)=O` [Example 18b, Spiro[2H-1,2,4-benzothiadiazine-3(4H), 4′-piperidine]-7-sulfonamide, 6-chloro-1′-[5-(nitrooxy)-1-oxopentyl]-, 1,1-dioxide], for which the melting point is 155 °C (dec.).

As to `CC(C)(CO[N+](=O)[O-])C(=O)N1CCC2(CC1)Nc1cc(C(F)(F)F)c(S(N)(=O)=O)cc1S(=O)(=O)N2` [Example 19b, Spiro[2H-1,2,4-benzothiadiazine-3(4H), 4′-piperidine]-7-sulfonamide, 1′-[2,2-dimethyl-3-(nitrooxy)-1-oxopropyl]-6-(trifluoromethyl)-, 1,1-dioxide], the melting point was 152 to 156 °C (dec.). In the series on Male Wistar rats (setting [1]), the “Urine collected in 6 hours” value came out at 2.5 ± 0.4 mL.

`NS(=O)(=O)c1cc2c(cc1Cl)NC(CCCCCO[N+](=O)[O-])=NS2(=O)=O` [Example 20c, 4H-1,2,4-Benzothiadiazine-7-sulfonamide, 6-chloro-3-[5-(nitrooxy)pentyl]-, 1,1-dioxide] showed a melting point of 170 to 172 °C. Moreover, in the series on Male Wistar rats (setting [1]), the “Urine collected in 6 hours” value was 3.0 ± 0.9 mL.

With `NS(=O)(=O)c1cc2c(cc1C(F)(F)F)NC(CCCCCO)NS2(=O)=O` (centres unmarked) [Example 25b, 2H-1,2,4-Benzothiadiazine-7-sulfonamide, 3,4-dihydro-3-(5-hydroxypentyl)-6-(trifluoromethyl)-, 1,1-dioxide], the melting point was 97 °C.

`NS(=O)(=O)c1cc2c(cc1Cl)NC(Cc1ccc(CO[N+](=O)[O-])cc1)=NS2(=O)=O` [Example 29d, 4H-1,2,4-Benzothiadiazine-7-sulfonamide, 6-chloro-3-[[4-[(nitrooxy)methyl]phenyl]methyl]-, 1,1-dioxide] gave a melting point of more than 260 °C.

With `NS(=O)(=O)c1cc2c(cc1Cl)NCN(CCCO[N+](=O)[O-])S2(=O)=O` [Example 35b, 2H-1,2,4-Benzothiadiazine-7-sulfonamide, 6-chloro-3,4-dihydro-2-[3-(nitrooxy)propyl]-, 1,1-dioxide], the melting point was 148 to 151 °C (dec.).

Molecule `NS(=O)(=O)c1cc2c(cc1Cl)NCN(CCCCCO)S2(=O)=O` [Example 60, 2H-1,2,4-Benzothiadiazine-7-sulfonamide, 6-chloro-3,4-dihydro-2-(5-hydroxypentyl)-, 1,1-dioxide] registered a melting point of 177 to 179 °C.

Turning to `NS(=O)(=O)c1cc2c(cc1C(F)(F)F)NC(CCCCO[N+](=O)[O-])NS2(=O)=O` (centres unmarked) [Example 61b, 2H-1,2,4-Benzothiadiazine-7-sulfonamide, 3,4-dihydro-3-[4-(nitrooxy)butyl]-6-(trifluoromethyl)-, 1,1-dioxide], the melting point was 171 to 177 °C.

In the case of `NS(=O)(=O)c1cc2c(cc1Cl)NCN(CCCCCCO)S2(=O)=O` [Example 66, 2H-1,2,4-Benzothiadiazine-7-sulfonamide, 6-chloro-3,4-dihydro-2-(6-hydroxyhexyl)-, 1,1-dioxide], the melting point fell in the range of 176 to 179 °C.

As for `NS(=O)(=O)c1cc2c(cc1Cl)NCN(Cc1cc(CO[N+](=O)[O-])cc(OCCCCBr)c1)S2(=O)=O` [Example 68d, 2H-1,2,4-Benzothiadiazine-7-sulfonamide, 2-[[3-(4-bromobutoxy)-5[(nitrooxy)methyl]phenyl]methyl]-6-chloro-3,4-dihydro-, 1,1-dioxide], the melting point amounted to 80 °C.

As for `NS(=O)(=O)c1cc2c(cc1Cl)NC(CCO[N+](=O)[O-])NS2(=O)=O` (centres unmarked) [Example 74b, 2H-1,2,4-Benzothiadiazine-7-sulfonamide, 6-chloro-3,4-dihydro-3-[2-(nitrooxy)ethyl]-, 1,1-dioxide], the melting point is 113 to 117 °C.

Take `NS(=O)(=O)c1cc2c(cc1Cl)NC(CCc1cc(CO)cc(CO)c1)NS2(=O)=O` (centres unmarked) [Example 79d, 2H-1,2,4-Benzothiadiazine-7-sulfonamide, 3-[2-[3,5-bis(hydroxymethyl)phenyl]ethyl]-6-chloro-3,4-dihydro-, 1,1-dioxide]: the melting point was found to be 218 °C.

`NS(=O)(=O)c1cc2c(cc1Cl)NCN(CC1CO1)S2(=O)=O` (centres unmarked) [Example 81, 2H-1,2,4-benzothiadiazine-7-sulfonamide, 6-chloro-3,4-dihydro-2-(oxiranylmethyl)-, 1,1-dioxide] gave a melting point of 192 to 197 °C.
